Experiment [1] concerns the target T1, β-glucocerebrosidase, p.L444P mutation (GM08760A fibroblasts) (Homo sapiens, UniProt P04062, L483P).
T1 construct: host or cells: human Gaucher patient fibroblasts GM08760A, homozygous L444P
T1 sequence (P04062 40-536 L483P): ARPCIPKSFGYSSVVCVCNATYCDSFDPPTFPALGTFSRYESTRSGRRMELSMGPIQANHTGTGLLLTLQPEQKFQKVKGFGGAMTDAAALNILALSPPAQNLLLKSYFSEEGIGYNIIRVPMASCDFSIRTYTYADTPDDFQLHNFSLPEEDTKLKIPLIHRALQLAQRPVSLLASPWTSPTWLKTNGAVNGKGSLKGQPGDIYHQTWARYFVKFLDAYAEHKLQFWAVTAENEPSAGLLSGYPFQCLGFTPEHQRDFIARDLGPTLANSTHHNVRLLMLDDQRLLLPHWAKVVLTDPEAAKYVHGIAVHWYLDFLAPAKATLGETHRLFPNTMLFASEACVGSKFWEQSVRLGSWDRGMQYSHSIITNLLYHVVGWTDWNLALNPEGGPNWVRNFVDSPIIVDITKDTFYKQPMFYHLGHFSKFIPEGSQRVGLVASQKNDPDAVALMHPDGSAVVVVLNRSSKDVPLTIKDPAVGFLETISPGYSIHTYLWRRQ
The experiment is described as follows: Enhancement of β-glucocerebrosidase activity measured in Gaucher disease fibroblasts (L444P). The format is cell-based. To be noted: increase in enzyme activity vs non-treated cells, GBA fibroblasts bearing L444P. On the procedure:
Enhancement of β-Glucocerebrosidase Activity Measured in Gaucher Disease Fibroblasts Materials
Human fibroblasts from a patient with Gaucher disease homozygous for p.L444P mutation (GM08760A) were purchased from Coriell Institute for Medical Research (Camden, N.J., USA).
(§1) Fibroblasts were seeded at 5×10^3 cells per well in 96-well cell culture plates (Corning, N.Y., USA) in Dulbecco's Modified Eagle's Media (DMEM) supplemented with 10% of fetal bovine serum (FBS), 1% penicillin/streptomycin (P/S) (Thermo Fisher Scientific, Waltham, Mass., USA) and grown at 37° C., 5% CO2 overnight for cell attachment. Subsequently, cells were incubated in the absence or presence of the compounds at the desired concentration for 4 days. After incubation, cells were washed twice with phosphate-buffered saline (PBS) and enzyme activity assay was performed.
(§2) β-glucocerebrosidase activity in intact cultured cells was measured by using 4-methylumbelliferyl-β-D-glucopyranoside substrate (Apollo Scientific, UK). Briefly, cells were incubated with 4-MU-β-D-glucopyranoside in 0.1 M acetate buffer pH=4 at 37° C. for 1 hour. […] The liberated 4-MU was measured on a GloMax Discover plate reader (Promega, Madison, Wis., USA) with and excitation at 340 nm and emission at 460 nm. Enzyme activities were expressed in treated cells as X-fold increase in comparison with non-treated cells (X=1 represents no enhancement).
The capacity of the compounds of the disclosure to produce an increase in enzyme activity in GBA fibroblasts bearing L444P at concentrations between 6 and 50 μM is denoted as follows:
(§3) The following compounds listed in Table 2 were purchased (from Enamine, Princeton, Asinex, Vistas-M, and OSSK_541352) and tested in the assay as described above.

The target in experiment [2] is T2, β-glucocerebrosidase Wild Type (WT) (Homo sapiens, UniProt P04062).
T2 construct: endogenous in cells
T2 sequence (P04062 40-536): T1 sequence (P04062 40-536 L483P) with P444L
Briefly: β-glucocerebrosidase activity enhancement, Wild Type (WT). As to conditions: increase in enzyme activity vs non-treated cells. The format is cell-based. The protocol:
as §1, §2, §3

Where [3] appears, read: concentrations between 6 and 50 μM, 4 days incubation.
Setting [4] is: commercially available compounds, 6-50 μM, 4 days.

Positions count from the first letter of the chain named.

Results on twelve compounds are retold here after US11174242B2, “Heteroaryl compounds and their use” (Minoryx Therapeutics S.L., priority 2016, dated 2021).

For the compound `COc1cccc(Nc2cc(CN(C)Cc3cccc(C#N)c3)nc(N)n2)c1` [Example 37, 3-((((2-Amino-6-(3-methoxyphenylamino)pyrimidin-4-yl)methyl)(methyl)amino)methyl) benzonitrile], the “Activity L444P” value in experiment [1] (setting [3]) was “C (Increase in comparison with non-treated of 1.2-1.7 fold is shown as C)”. In experiment [2], the “Activity Wild Type (WT)” value is recorded as “B (Increase in comparison with non-treated of >1.7-2.0 fold is shown as B)”.
In the case of `CN(Cc1ccccc1)Cc1cc(Nc2cccc(Cl)c2)nc(N)n1` [Example 20], the “Activity L444P” value in experiment [1] (setting [3]) is on record as “B (Increase in comparison with non-treated of >1.7-2.0 fold is shown as B)”. In experiment [2], the “Activity Wild Type (WT)” value is “B (Increase in comparison with non-treated of >1.7-2.0 fold is shown as B)”.
For the compound `COc1ccc(Nc2nc(N)nc(CN(C)Cc3ccccc3)n2)cc1` [Example 6, 6-((Benzyl(methyl)amino)methyl)-N^2-(4-methoxyphenyl)-1,35-triazine-2,4-diamine], in experiment [1] (setting [3]), the “Activity L444P” value was “B (Increase in comparison with non-treated of >1.7-2.0 fold is shown as B)”. The “Activity Wild Type (WT)” value in experiment [2] is “B (Increase in comparison with non-treated of >1.7-2.0 fold is shown as B)”.
For the compound `CN(Cc1ccccc1)Cc1cc(Nc2cccc3c2OCO3)nc(N)n1` [Example 43, N^4-(Benzo[d][1,3]dioxol-4-yl)-6-((benzyl(methyl)amino)methyl)pyrimidine-2,4-diamine], the “Activity L444P” value in experiment [1] (setting [3]) is listed as “C (Increase in comparison with non-treated of 1.2-1.7 fold is shown as C)”. Also, the “Activity Wild Type (WT)” value in experiment [2] is listed as “C (Increase in comparison with non-treated of 1.2-1.7 fold is shown as C)”.
Take `CN(Cc1ccccc1)Cc1cc(Nc2ccc3cnccc3c2)nc(N)n1` [Example 31, 6-((Benzyl(methyl)amino)methyl)-N^4-(isoquinolin-6-yl)pyrimidine-2,4-diamine]: the “Activity Wild Type (WT)” value in experiment [2] was “A (Increase in comparison with non-treated of >2.0 fold is shown as A)”.
Regarding `CCc1ccc(CN(C)Cc2cc(Nc3cccc(OC)c3)nc(N)n2)cc1` [Example 40, 6-(((4-Ethylbenzyl)(methyl)amino)methyl)-N^4-(3-methoxyphenyl)pyrimidine-2,4-diamine], the “Activity L444P” value in experiment [1] (setting [3]) is given as “B (Increase in comparison with non-treated of >1.7-2.0 fold is shown as B)”.
Still for that read-out and setting: the result for `Cc1ccc(Nc2cc(N)nc(CN(C)Cc3ccccc3)n2)cc1` [Example 22, 2-((Benzyl(methyl)amino)methyl)-N^4-(p-tolyl)pyrimidine-4,6-diamine] reads “B (Increase in comparison with non-treated of >1.7-2.0 fold is shown as B)”.
As for `COc1ccc(Nc2nc(N)nc(CN(C)c3ccccc3)n2)cc1` [Example 2, N^2-(4-Methoxyphenyl)-6-((methyl(phenyl)amino)methyl)-1,3,5-triazine-2,4-diamine], the “Activity L444P” value in experiment [1] (setting [3]) is given as “C (Increase in comparison with non-treated of 1.2-1.7 fold is shown as C)”.
Regarding `COc1ccc(Nc2cc(N)nc(CN(C)Cc3ccccc3)n2)cc1` [Example 66, 2-((Benzyl(methyl)amino)methyl)-N^4-(4-methoxyphenyl)pyrimidine-4,6-diamine], in experiment [1] (setting [3]), the “Activity L444P” value is “B (Increase in comparison with non-treated of >1.7-2.0 fold is shown as B)”.
Consider `Cc1ccccc1Nc1nc(N)nc(CN(C)c2ccccc2)n1` [6-((methyl(phenyl)amino)methyl)-N2-(o-tolyl)-1,3,5-triazine-2,4-diamine], for which, in experiment [1] (setting [4]), the “Activity L444P” value was “C (Increase in comparison with non-treated of 1.2-1.7 fold is shown as C)”.
Turning to `Cc1ccc(Nc2cc(CN(C)Cc3cccc(C)c3)nc(N)n2)cc1` [Example 32, 6-((Methyl(3-methylbenzyl)amino)methyl)-N^4-p-tolylpyrimidine-2,4-diamine], the “Activity L444P” value in experiment [1] (setting [3]) is “C (Increase in comparison with non-treated of 1.2-1.7 fold is shown as C)”.
In the case of `COc1ccccc1Nc1nc(N)nc(CN(C)Cc2ccc3ccccc3c2)n1` [N2-(2-methoxyphenyl)-6-((methyl(naphthalen-2-ylmethyl)amino)methyl)-1,3,5-triazine-2,4-diamine], in experiment [1] (setting [4]), the “Activity L444P” value is listed as “B (Increase in comparison with non-treated of >1.7-2.0 fold is shown as B)”.
